We go through one molecule from patent US8937056B2, “Multikinase inhibitors for use in the treatment of cancer” (Eisai R&D Management Co., Ltd., priority 2007, dated 2015).

Series [1] relates to PANC-1 pancreatic cancer cells. The series is described as follows: PANC-1 cell growth, alone or in combination with SN-38 (CellTiter-Glo). A general note: Cellular ATP, detected with luciferase, serves as a proxy for viable cell number.
Method: To determine whether compounds 091 or 106 in combination with SN-38 would enhance the anticancer activity of chemotherapy due to MEKK1 inhibition, PANC-1 human pancreatic cancer cells were examined.
Antiproliferative effects of SN-38 were evaluated in PANC-1 pancreatic cancer cells in combination with compound 091 or 106. Cultured human cancer cells were placed into 96-well plates and grown in the absence or continuous presence of 0.03-1000 nM SN-38 for 96 h with or without 1 μM of test compound. Cell growth was assessed using CellTiter-Glo® Luminescent Cell Viability Assay (Promega). IC50 values were determined as the concentration of a substance which inhibits cell growth by 50% compared to untreated cell populations.
Series [2] relates to BxPC-3 human pancreatic cancer xenografts. The series is described as follows: In vivo antitumor activity in BxPC-3 xenografts. On the set-up: species or system mice. To be noted: 30 mg/kg i.v., two weekly rounds of q1d×5. As for the experimental part:
A study was carried out to investigate anticancer activity of compound 091 in human BxPC-3 pancreatic cancer xenografts. The compound was evaluated against subcutaneous-implanted BxPC-3 human pancreatic cancer xenografts in female athymic mice.
The human pancreatic cancer cell line, BxPC-3-T1 (no mutations on B-RAF and Ras genes) was transplanted subcutaneously into female nude mice. The experiment consisted of 8 mice per group on the first day of treatment. The compound was administered intravenously for two weekly rounds of five daily injections (q1d×5) with a two-day rest period between the rounds. The compound was administered in a vehicle volume of 0.1 mL/10 g of body weight.
The general health of the mice was monitored daily. Tumor dimensions and body weights were recorded twice a week starting on the first day of treatment. Tumor weights were calculated using the equation (l×w^2)/2, where 1 and w refer to the larger and smaller dimensions collected at each measurement. When the mean tumor volume reached 130 mm^3, vehicle (cremophor:ethanol:5% glucose; 1:1:8) or the test compound (15, 30 mg/kg) was administered to mice (8/group).

Series [3] relates to Cell lines which carried a B-RAF V600E mutation. The series is described as follows: Cell growth inhibition in solid cancer cell lines (CellTiter-Glo or methylene blue). Format: cell-based. To be noted: 96 hours, B-RAF V600E mutated cell lines very sensitive. As for the experimental part:
Compounds 091 and 106, were extensively tested in solid cancer cell lines (shown in FIG. 3 for 18 cell lines for compound 091 and 20 cell lines for compound 106). […] Cell growth was assessed using a CellTiter-Glo® Luminescent Cell Viability Assay (Promega) or a methylene blue assay.

Series [4] concerns Colo205 human colon cancer xenografts. The series is described as follows: In vivo antitumor activity in Colo205 xenografts. More on the design: species or system mice. To be noted: 30 mg/kg i.v., two weekly rounds of q1d×5. How it is done: A study was carried out to investigate anticancer activity of compounds 091 and 106 in human Colo205 BRAF mutated colon cancer xenografts. The compounds were evaluated against subcutaneous-implanted Colo205 human colon cancer xenografts in female athymic mice.
The human colon cancer cell line, Colo205 which has B-RAF (V600E) mutation was transplanted subcutaneously into female nude mice. The experiment consisted of 6 mice per group on the first day of treatment. The compound was administered intravenously for two weekly rounds of five daily injections (q1d×5) with a two-day rest period between the rounds. Compound 091 was administered in a vehicle volume of 0.1 mL/10 g of body weight.
The general health of the mice was monitored daily. Tumor dimensions and body weights were recorded twice a week starting on the first day of treatment. Tumor weights were calculated using the equation (l×w^2)/2, where 1 and w refer to the larger and smaller dimensions collected at each measurement. When the mean tumor volume reached 140 mm^3, vehicle (cremophor:ethanol:5% glucose; 1:1:8) or the test compound (30 mg/kg) was administered to mice (6/group).

A further series concerns the target T1, Flt3 (Homo sapiens, UniProt P36888).
T1 sequence (P36888 27-993): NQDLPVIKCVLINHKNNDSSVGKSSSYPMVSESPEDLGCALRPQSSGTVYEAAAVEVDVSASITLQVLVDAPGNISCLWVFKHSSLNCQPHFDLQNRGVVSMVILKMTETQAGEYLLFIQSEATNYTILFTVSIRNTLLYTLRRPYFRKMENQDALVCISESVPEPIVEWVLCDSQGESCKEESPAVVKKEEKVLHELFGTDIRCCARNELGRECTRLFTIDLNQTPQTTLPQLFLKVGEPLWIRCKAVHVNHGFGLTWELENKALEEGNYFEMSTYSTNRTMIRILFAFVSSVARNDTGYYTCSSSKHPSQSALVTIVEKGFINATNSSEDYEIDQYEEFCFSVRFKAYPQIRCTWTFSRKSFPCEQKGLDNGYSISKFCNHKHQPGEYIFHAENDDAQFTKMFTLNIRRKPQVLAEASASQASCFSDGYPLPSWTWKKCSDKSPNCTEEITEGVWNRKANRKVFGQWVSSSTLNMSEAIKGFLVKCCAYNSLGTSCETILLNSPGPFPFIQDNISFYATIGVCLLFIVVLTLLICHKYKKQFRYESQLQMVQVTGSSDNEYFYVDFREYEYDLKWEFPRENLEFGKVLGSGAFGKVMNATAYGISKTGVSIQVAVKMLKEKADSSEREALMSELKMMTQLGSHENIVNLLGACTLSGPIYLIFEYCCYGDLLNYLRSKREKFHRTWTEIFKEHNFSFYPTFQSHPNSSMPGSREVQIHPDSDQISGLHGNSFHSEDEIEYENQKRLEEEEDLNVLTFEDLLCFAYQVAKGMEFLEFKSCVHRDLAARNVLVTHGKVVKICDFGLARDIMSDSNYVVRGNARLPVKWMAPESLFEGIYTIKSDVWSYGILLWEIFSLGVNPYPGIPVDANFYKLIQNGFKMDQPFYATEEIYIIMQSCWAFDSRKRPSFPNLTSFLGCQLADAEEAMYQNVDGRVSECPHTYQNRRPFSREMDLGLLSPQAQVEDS
As to the kind of experiment: Kinase inhibition, full range of concentrations. The series is classed as biochemical. To be noted: 10 μM ATP, duplicate measurements. As for the experimental part: (§1) In a final reaction volume of 25 μL, each human enzyme was incubated with appropriate buffer. The reaction was initiated by the addition of the MgATP mix with [γ^33P-ATP]. After incubation for 40 minutes at room temperature, the reaction was stopped by the addition of 5 μL of a phosphoric acid solution. All assays were performed at an ATP concentration of 10 μM.
(§2) 10 μL of the reaction was spotted onto a P30 filtermat and washed three times for 5 minutes in a phosphoric acid solution. ^33P transferred to a substrate peptide was then determined by scintillation counting. The results were expressed as a percentage of that in control incubations.
(§3) Furthermore, inhibitory activities of the compounds were confirmed against six of these kinases with a full range of concentrations. Three cytoplasmic Src family kinases were studied: c-Src, Fyn and Lyn. We also studied cytoplasmic Abl kinase and two receptor tyrosine kinases: Flt3, and TrkB. A standard ATP concentration of 10 μM was used in all reactions. All experiments were conducted with duplicate measurements. […] TrkB and members of the Src family were the most sensitive enzymes to Compound 091 inhibition.

The target in a further series is Fyn (Homo sapiens, UniProt P06241). The series is described as follows: Kinase inhibition, full range of concentrations. The series is classed as biochemical. Conditions: 10 μM ATP, duplicate measurements. How it is done:
as §1, §2, §3

For the next series, the target named is Abl kinase (Homo sapiens, UniProt P00519). The series is described as follows: Kinase inhibition, full range of concentrations. The series is classed as biochemical. Conditions: 10 μM ATP, duplicate measurements. As for the experimental part:
as §1, §2, §3

The next series concerns the target TrkB (Homo sapiens, UniProt Q16620). As to the kind of experiment: Kinase inhibition, full range of concentrations. Format: biochemical. Conditions: 10 μM ATP, duplicate measurements. How it is done: as §1, §2, §3
The next series concerns the target Lyn (Homo sapiens, UniProt P07948). The series is described as follows: Kinase inhibition, full range of concentrations. The series is classed as biochemical. Conditions: 10 μM ATP, duplicate measurements. How it is done: as §1, §2, §3
The target of the next series is c-Src (Homo sapiens, UniProt P12931). The series is described as follows: Kinase inhibition, full range of concentrations. Format: biochemical. To be noted: 10 μM ATP, duplicate measurements. As for the experimental part: as §1, §2, §3
Sequence of c-Src (P12931 whole entry): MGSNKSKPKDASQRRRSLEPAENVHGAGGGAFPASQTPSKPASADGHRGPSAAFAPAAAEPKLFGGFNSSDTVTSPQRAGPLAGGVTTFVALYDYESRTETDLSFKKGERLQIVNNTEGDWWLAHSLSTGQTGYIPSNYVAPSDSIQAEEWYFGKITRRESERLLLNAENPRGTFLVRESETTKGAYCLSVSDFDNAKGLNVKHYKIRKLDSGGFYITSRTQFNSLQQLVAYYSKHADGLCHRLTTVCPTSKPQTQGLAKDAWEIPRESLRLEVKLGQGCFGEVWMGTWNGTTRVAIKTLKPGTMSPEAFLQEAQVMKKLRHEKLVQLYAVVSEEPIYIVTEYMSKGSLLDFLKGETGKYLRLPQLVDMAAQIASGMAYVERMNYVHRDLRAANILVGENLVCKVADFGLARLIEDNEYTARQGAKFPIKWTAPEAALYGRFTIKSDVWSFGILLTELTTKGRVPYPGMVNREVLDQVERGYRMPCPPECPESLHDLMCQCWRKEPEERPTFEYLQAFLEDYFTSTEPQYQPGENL

Sequence of Fyn (P06241 whole entry): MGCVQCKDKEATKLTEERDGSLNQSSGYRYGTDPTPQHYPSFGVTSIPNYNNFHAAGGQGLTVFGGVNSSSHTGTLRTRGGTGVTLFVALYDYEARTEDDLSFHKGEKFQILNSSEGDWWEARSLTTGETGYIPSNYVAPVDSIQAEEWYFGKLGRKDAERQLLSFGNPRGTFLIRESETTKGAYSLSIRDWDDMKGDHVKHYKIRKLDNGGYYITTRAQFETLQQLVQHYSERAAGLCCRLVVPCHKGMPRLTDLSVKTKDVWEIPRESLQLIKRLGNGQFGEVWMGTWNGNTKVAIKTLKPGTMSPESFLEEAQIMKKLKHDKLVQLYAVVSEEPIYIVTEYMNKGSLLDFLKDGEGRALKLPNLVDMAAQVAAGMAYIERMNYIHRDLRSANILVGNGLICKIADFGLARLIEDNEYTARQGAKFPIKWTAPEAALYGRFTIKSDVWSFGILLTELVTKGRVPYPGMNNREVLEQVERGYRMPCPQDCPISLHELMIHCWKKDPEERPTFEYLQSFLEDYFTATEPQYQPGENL
Sequence of Lyn (P07948 whole entry): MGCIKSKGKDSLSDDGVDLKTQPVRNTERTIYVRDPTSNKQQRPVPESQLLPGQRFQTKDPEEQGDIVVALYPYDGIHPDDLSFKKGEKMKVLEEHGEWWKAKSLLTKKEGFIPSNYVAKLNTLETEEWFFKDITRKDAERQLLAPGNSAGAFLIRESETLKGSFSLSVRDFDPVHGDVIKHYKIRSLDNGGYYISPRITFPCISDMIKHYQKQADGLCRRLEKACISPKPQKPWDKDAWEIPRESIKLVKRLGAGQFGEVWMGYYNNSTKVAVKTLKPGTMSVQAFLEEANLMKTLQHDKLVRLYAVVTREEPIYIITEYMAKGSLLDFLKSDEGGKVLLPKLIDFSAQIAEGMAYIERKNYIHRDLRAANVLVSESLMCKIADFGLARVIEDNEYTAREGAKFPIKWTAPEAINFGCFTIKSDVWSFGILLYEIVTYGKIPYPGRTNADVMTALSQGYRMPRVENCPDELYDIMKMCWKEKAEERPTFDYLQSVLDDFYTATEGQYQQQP
Sequence of Abl kinase (P00519 whole entry): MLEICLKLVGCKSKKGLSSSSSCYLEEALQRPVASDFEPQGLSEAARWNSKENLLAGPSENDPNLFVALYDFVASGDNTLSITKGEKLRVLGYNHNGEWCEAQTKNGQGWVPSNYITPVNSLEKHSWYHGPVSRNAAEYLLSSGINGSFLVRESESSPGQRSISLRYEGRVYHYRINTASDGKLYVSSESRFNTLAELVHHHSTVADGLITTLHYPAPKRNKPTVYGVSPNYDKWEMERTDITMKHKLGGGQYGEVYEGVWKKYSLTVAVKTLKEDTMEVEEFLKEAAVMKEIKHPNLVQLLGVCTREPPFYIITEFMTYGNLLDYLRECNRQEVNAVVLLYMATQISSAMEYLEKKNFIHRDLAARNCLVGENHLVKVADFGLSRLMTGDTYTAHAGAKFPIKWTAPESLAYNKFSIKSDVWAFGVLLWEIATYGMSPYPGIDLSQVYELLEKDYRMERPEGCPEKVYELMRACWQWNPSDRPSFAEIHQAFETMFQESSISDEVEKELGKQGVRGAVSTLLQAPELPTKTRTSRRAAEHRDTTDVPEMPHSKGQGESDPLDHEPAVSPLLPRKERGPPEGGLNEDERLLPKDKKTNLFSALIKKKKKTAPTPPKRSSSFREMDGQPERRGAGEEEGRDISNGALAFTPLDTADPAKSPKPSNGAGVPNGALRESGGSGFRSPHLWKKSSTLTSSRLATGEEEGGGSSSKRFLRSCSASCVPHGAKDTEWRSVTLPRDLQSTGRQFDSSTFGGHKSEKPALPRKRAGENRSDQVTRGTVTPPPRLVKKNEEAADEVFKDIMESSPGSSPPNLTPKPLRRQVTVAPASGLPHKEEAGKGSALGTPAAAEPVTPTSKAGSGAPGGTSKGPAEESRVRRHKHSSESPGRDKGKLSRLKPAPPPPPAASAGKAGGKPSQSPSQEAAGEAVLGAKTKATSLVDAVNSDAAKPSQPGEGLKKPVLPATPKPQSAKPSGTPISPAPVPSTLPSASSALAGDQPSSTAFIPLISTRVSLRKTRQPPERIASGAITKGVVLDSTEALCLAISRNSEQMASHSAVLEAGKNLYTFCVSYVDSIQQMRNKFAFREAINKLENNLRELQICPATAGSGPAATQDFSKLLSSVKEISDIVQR
Sequence of TrkB (Q16620 32-822): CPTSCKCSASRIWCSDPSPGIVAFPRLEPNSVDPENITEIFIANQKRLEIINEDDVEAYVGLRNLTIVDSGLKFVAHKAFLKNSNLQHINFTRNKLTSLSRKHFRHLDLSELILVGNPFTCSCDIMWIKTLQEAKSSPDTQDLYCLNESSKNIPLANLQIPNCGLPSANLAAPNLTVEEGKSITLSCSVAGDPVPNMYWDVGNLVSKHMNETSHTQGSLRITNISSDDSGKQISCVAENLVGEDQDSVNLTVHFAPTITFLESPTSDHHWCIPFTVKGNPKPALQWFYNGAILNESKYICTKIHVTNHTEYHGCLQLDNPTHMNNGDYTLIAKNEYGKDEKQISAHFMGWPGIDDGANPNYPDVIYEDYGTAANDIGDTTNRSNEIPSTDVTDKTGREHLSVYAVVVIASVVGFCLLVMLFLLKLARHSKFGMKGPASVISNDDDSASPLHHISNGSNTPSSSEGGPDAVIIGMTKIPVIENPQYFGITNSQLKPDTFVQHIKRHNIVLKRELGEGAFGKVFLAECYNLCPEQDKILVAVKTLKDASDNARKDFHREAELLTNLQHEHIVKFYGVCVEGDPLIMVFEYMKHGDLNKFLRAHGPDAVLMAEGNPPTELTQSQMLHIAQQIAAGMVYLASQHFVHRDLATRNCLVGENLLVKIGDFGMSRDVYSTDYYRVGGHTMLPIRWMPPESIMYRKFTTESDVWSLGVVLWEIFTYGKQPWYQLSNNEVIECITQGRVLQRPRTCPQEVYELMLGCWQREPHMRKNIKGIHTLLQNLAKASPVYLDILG

As usually defined, the IC50 is the midpoint of a concentration-inhibition curve. Take `CNc1cc(O)c2c(c1)/C=C/C[C@H](O)[C@H](O)C(=O)/C=C\[C@@H](C)[C@H](C)OC2=O` [Compound 091]: the “effect on PANC-1 cancer cell growth, compound alone” value in series [1] (1 μM alone, separate experiments (data not shown)) is reported as “did not affect”. Moreover, the “effect on cytotoxicity of SN-38” value in series [1] (1 μM test compound in combination with SN-38) is listed as “enhanced”. Further, the tumor regression in [2] is 50%; in [4], approximately 70%. In addition, the “cell growth inhibition, concentration range of sensitivity” value in series [3] was “low-nM or sub-μM”. The IC50 against Flt3, on Fyn, against Abl kinase, against TrkB, against Lyn and at c-Src was less than 214 nM each time.
